Reference: patent US4347319A, “Microbiological epoxidation process” (priority 1980, dated 1982)

Key:
[1] = target: T1, cell fractions of Methylococcus capsulatus (Texas, ATCC 19,069) (Methylococcus capsulatus, UniProt G1UBD1+Q603F1+Q607G3); assay: Oxidation by cell fractions P(40), P(80), S(80); type: biochemical; conditions: for Conversion Rate: particulate P(40) fraction, n-propane to 2-propanol, n-butane to 2-butanol; for Oxidizing Activity (rate of oxidation) in cell fraction: propylene to propylene oxide, methane to methanol, 30° C.; for % Distribution in Cell Fraction: propylene-epoxidizing / methane-hydroxylating activity
T1 sequence (G1UBD1 33-414): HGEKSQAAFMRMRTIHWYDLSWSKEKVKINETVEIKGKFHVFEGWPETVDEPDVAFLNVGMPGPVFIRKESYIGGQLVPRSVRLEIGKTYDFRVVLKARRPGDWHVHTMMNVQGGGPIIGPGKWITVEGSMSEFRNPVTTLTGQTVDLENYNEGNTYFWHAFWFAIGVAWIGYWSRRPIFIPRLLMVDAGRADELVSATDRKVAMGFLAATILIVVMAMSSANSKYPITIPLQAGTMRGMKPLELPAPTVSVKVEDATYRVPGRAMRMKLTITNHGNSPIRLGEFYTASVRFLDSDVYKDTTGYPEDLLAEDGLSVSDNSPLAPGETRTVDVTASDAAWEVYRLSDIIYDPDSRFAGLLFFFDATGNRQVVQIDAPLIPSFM
T1 sequence (Q607G3 1-247): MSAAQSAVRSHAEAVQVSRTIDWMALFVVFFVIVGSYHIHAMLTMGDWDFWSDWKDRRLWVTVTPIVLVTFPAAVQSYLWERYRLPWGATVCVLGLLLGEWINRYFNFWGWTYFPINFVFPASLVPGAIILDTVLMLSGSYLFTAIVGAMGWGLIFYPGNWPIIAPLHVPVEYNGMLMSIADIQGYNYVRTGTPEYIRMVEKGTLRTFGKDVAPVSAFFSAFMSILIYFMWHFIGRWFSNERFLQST
T1 sequence (Q603F1 1-260): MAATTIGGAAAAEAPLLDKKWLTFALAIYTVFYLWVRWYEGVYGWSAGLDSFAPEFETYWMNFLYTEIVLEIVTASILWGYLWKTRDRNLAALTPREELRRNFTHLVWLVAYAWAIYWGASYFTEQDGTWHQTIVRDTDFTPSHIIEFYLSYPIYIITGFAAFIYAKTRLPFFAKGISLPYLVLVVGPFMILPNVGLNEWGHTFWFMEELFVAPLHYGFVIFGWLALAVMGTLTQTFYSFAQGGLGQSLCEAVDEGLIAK

[2] = test system: cell fractions of Methylobacterium sp. (CRL-26, NRRL B-11,222); assay: Oxidation by cell fractions P(40), P(80), S(80); type: biochemical; conditions: for Conversion Rate: particulate P(40) fraction, n-propane to 2-propanol, n-butane to 2-butanol; for Oxidizing Activity (rate of oxidation) in cell fraction: propylene to propylene oxide, methane to methanol, 30° C.
Procedure, shortened: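 Cells washed and French-press disrupted in 25 mM K phosphate pH 7.0 with 5 mM MgCl2; particulate P(40), P(80) and soluble S(80) fractions from 40,000×g and 80,000×g spins. Methane or propylene (1:1 with O2) oxidised at 30° C with NADH; methanol/propylene oxide by GC; activity as μmoles product/h/mg protein.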

[3] = test system: Methylomonas methanica (CRL 21 PM7) NRRL B-11,206; assay: Oxidation by washed cell suspensions of methane-grown cells; type: cell-based
Procedure, shortened: (§1)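 Cells grown 2 days at 30 °C under methane/air 1:1 (pH 7.0 medium), washed and resuspended in 0.15 M phosphate pH 7.0. Suspension (2 mg cells) incubated at 30 °C, 300 rpm under substrate/O2 1:1 (liquid substrates 10 μl); products measured periodically by GC with flame ionization detection.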

[4] = test system: Methylomonas rosaceus (CRL M7P) NRRL B-11,213; assay: as above; type: cell-based; conditions: 30° C., methane to methanol, alkene to 1,2-epoxide
Procedure, shortened: as §1

[5] = test system: Methylomonas rubrum (CRL M6P) NRRL B-11,210; assay: as above; type: cell-based; conditions: methane-grown washed cells, 30° C.; methane to methanol, alkene to 1,2-epoxide
Procedure, shortened: as §1

SMILES	Conversion Rate [1]	Conversion Rate [2]	Conversion Rate to Ketone ([3]; methane-grown cells, butane to 2-butanone) [μmoles/hr/mg Protein]	Oxidizing Activity (rate of oxidation) in cell fraction ([1]; P(40))	% Distribution in Cell Fraction ([1]; P(40)) [%]	Oxidizing Activity (rate of oxidation) in cell fraction ([1]; P(80))	% Distribution in Cell Fraction ([1]; P(80)) [%]	Oxidizing Activity (rate of oxidation) in cell fraction ([1]; S(80))	% Distribution in Cell Fraction ([1]; S(80)) [%]	Oxidizing Activity (rate of oxidation) in cell fraction ([2]; P(40))	Oxidizing Activity (rate of oxidation) in cell fraction ([2]; P(80))	Oxidizing Activity (rate of oxidation) in cell fraction ([2]; S(80))	Oxidative Conversion Rates [4] [μmole/hr/mg protein]	Oxidative Conversion Rates [5] [μmole/hr/mg protein]	Oxidative Conversion Rates ([3]; methane-grown washed cells, 30° C., methane to methanol, alkene to 1,2-epoxide) [μmole/hr/mg protein]
CCCC [Butane]	0.92 μmoles/hr/2.0mg. of protein	0.61 μmoles/hr/2.0mg. of protein	1.5	–	–	–	–	–	–	–	–	–	–	–	–
C [Methane]	–	–	–	3.8 μ moles of products formed per	90	3.9 μ moles of products formed per	10	0 μ moles of products formed per	0	2.7 μ moles of products formed per	2.8 μ moles of products formed per	0 μ moles of products formed per	1.4	0.5	–
CCC [Propane]	1.2 μmoles/hr/2.0mg. of protein	1.0 μmoles/hr/2.0mg. of protein	–	–	–	–	–	–	–	–	–	–	–	–	–
C=CC [Propylene]	–	–	–	2.6 μ moles of products formed per	89	2.0 μ moles of products formed per	11	0 μ moles of products formed per	0	1.2 μ moles of products formed per	1.1 μ moles of products formed per	0 μ moles of products formed per	2.0	1.0	2.4
